What was measured:
[1] = Reactivity of NBD-nitroxide with reactive oxygen species by fluorometry; conditions: hydrogen peroxide, hypochlorous acid
Description: (§1) In order to investigate reaction selectivities of the above three types of NBD-nitroxide (NBD-Me, NBD-Et and NBD-Pen), reactivities with various ROS and lipid radical were evaluated by fluorometry. […] In addition, in the reaction with these compounds, no significant difference in fluorescence intensity was observed between these nitroxides, and there was no difference between the 2nd and 6th position substituents.

[2] = Reactivity of NBD-nitroxide with lipid radicals by fluorometry; conditions: for fluorescence intensity on reaction with lipid radical: lipid radical produced using lipoxygenase (LOX) for LA, ALA or AA, FIG. 3
Description: as §1

[3] = test system: human umbilical vein endothelial cell (HUVEC); experiment: Cytotoxicity of NBD-nitroxide, viable cell count; type: cell-based; conditions: viable cells after incubation for 24 hours
Description: Cytotoxicity of NBD-nitroxide was evaluated using human umbilical vein endothelial cell (HUVEC). When each concentration of the compound was added to HUVEC and the number of viable cells after incubation for 24 hours was counted, cytotoxicity was not observed up to 10 μM in any NBD-nitroxide.

[4] = Scavenging of lipid radicals in hepatocellular carcinoma model mouse, LC/FL/MS of liver lipid extract; type: in vivo, mice (C57BL/6J)
Description: It is appropriately selected according to the present invention, but not limited to, HPLC analysis is performed in this Example by injecting 10 μL of a sample solution into an InertSusteain® C18 analytical column (filled with ES silica having a particle size of 3 μm, 2.0×150 mm) manufactured by Mitsubishi Chemical Corporation, which is eluted with a mobile phase (A: 5.0 mM ammonium acetate in H2O, B:ACN:H2O (95:5)) at 40° C. at a rate of 0.4 ml/min. The time program of mobile phase elution was set to B %: 0 to 22 min; 60%, 22 to 60 min; 80%, 60 to 70 min; 100%.
For each fraction eluted, fluorescence observation from NBD-Pen was performed at excitation wavelength (470 nm) and emission wavelength (530 nm) with a fluorescence detector (RF-20A xs manufactured by Shimadzu Corporation).
Next, each fraction thus obtained was introduced into an ion detector (Q Exactive™ Hibrid Quadrupole-Orbitrap™ MS manufactured by Thermo Fisher Scientific Co., Ltd.) by electrospray ionization (ESI) and subjected to mass spectrometry.
Male mice (C57BL/6J) at 8 weeks of age were divided into two groups. As a control, physiological saline (PBS) was administered to mice in Group 1 by intraperitoneal injection. DEN at 100 mg/kg was administered to mice in Group 2 by intraperitoneal injection.
Four hours after DEN administration, a 500 μM NBD-Pen solution was administered at 4 ml/kg to mice in Groups 1 and 2 by intraperitoneal injection.
Fifteen minutes after administration of NBD-Pen, livers were excised from the mice in the respective groups and lipid extraction was performed. LC/FL/MS analysis was performed on extracts under the same conditions as in Example 1. The structure of the radical adduct was analyzed by comparing the fluorescence peak observed at the LC/FL site with the precise mass analysis result at that column retention time. The results are described in Table 2 and FIG. 11.

[5] = test system: MDA, ALT (GPT), IL-6 in liver extracts of DEN-administered rats; experiment: Liver lipid peroxidation, hepatic injury and inflammatory markers after DEN administration; type: in vivo, rats (F344); conditions: rat liver extract 24 h after DEN 100 mg/kg i.p.; 500 μM solution at 4 ml/kg 1 h after DEN; vs DEN group; FIG. 5
Description: (§2) Six week-old male rats (F344) were divided into 4 groups, and as a control, rats in Group 1 were administered with saline (PBS) by intraperitoneal injection. Rats in Groups 2-4 were administered with DEN at 100 mg/kg by intraperitoneal injection.
(§3) One hour after DEN administration, physiological saline was administered to rats in Group 2 by intraperitoneal injection, rats in Group 3 were administered with a 500 μM OH-Pen solution at 4 ml/kg, and rats in Group 4 were administered with a 500 μM OH-Pen-NOMe solution at 4 ml/kg.
Twenty-four hours after DEN administration, livers were excised from rats in the respective groups and lipid extraction was carried out. For extracts, amounts of malondialdehyde; MDA as a peroxidized lipid marker, alanine transaminase (glutamate pyruvate transferase; ALT (GPT)) as a hepatic injury marker, and interleukin-6; IL-6 as an inflammatory marker were measured.

hepatocellular carcinoma = experiment: Hepatocellular carcinogenesis three months after DEN administration, number of tumor foci; type: in vivo, rats (F344); conditions: rats three months after DEN 100 mg/kg i.p.; 500 μM solution at 4 ml/kg 1 h after DEN; FIG. 6
Description: as §2, §3
Three months after DEN administration, rats in the respective groups were subjected to mixed anesthesia of 3 species, and they were sacrificed and livers were taken out promptly. Photographs of the livers taken from the rats of the respective groups are shown in FIG. 6, and the result of counting the number of tumor foci is shown in FIG. 6b.

[6] = superoxide anion radical, hydroxy radical or nitric oxide, FIG. 3
[7] = Gr. 1, no DEN (PBS), mouse liver 15 min after 500 μM NBD-Pen 4 ml/kg i.p.
[8] = Gr. 2, DEN 100 mg/kg i.p., NBD-Pen 500 μM 4 ml/kg i.p. 4 h after DEN, liver 15 min later

Compound | fluorescence on reaction with reactive oxygen species [1, 6] | fluorescence intensity on reaction with lipid radical [2] | alanine transaminase ALT (GPT), hepatic injury marker [5] | interleukin-6 (IL-6), inflammatory marker [5] | malondialdehyde (MDA), peroxidized lipid marker [5] | hepatocellular carcinogenesis (number of tumor foci) (hepatocellular carcinoma) | also measured
2,2,6-trimethyl-4-(4-nitrobenzo[1,2,5]oxadiazol-7-ylamino)-6-pentylpiperadine-1-oxyl [NBD-Pen] | fluorescence did not increase much | significantly elevated |  |  |  |  | fluorescence on reaction with reactive oxygen species ([1]; superoxide anion radical or hydroxy radical, FIG. 4): fluorescence did not increase much; reactivity with the lipid radicals and thermal stability of nitroxide-lipid complex, comparison among Compounds A to C [2]: predominant; fluorescence intensity on reaction with lipid radicals ([2]; LA, ALA, AA activated with LOX, AAPH or MeO-AMVN, FIG. 4): remarkably increased; concentration up to which cytotoxicity was not observed [3]: > 10 µM; Fluorescent intensity of NBD-Pen-R (a.u.) R [4, 7]: 29.72 a.u.; Fluorescent intensity of NBD-Pen-R (a.u.) R C2H5 [4, 7]: 72.95 a.u.; Fluorescent intensity of NBD-Pen-R (a.u.) R C3H7 [4, 7]: 143.69 a.u.; Fluorescent intensity of NBD-Pen-R (a.u.) R C5H11 [4, 7]: 393.38 a.u.; Fluorescent intensity of NBD-Pen-R (a.u.) R [4, 8]: 353.94 a.u.; Fluorescent intensity of NBD-Pen-R (a.u.) R C2H5 [4, 8]: 704.15 a.u.; Fluorescent intensity of NBD-Pen-R (a.u.) R C3H7 [4, 8]: 1604.07 a.u.; Fluorescent intensity of NBD-Pen-R (a.u.) R C5H11 [4, 8]: 3511.72 a.u.
CCC1(CC)CC(Nc2ccc([N+](=O)[O-])c3nonc23)CC(CC)(CC)N1[O] [NBD-Et] | fluorescence did not increase much | significantly elevated |  |  |  |  | 
CC1(C)CC(Nc2ccc([N+](=O)[O-])c3nonc23)CC(C)(C)N1[O] [NBD-Me] | fluorescence did not increase much | significantly elevated |  |  |  |  | 
CCCCCC1(C)CC(O)CC(C)(C)N1[O] (centres unmarked) [OH-Pen, 4-hydroxy-2,2,6-trimethyl-6-pentylpiperidine-1-oxyl] |  |  | significantly decreased | significantly decreased | significantly decreased | suppressed hepatocellular carcinogenesis | 
CCCCCC1(C)CC(O)CC(C)(C)N1OC (centres unmarked) [OH-Pen-NOMe, 4-hydroxy-1-methoxy-2,2,6-trimethyl-6-pentylpiperidine-1-oxyl] |  |  | almost no drop | almost no drop | almost no drop | not suppressed at all | 

— patent US11609238B2, “Method for detecting a radical compound derived from a lipid and a compound derived from the radical compound” (FUSO PHARMACEUTICAL INDUSTRIES, LTD., priority 2017, dated 2023)
